# Test results reported in article PMC6387968, “An in vitro ADME and in vivo Pharmacokinetic Study of Novel TB-Active Decoquinate Derivatives” (Frontiers in Pharmacology, 2019).
# Experiments:
# [1] = for Autosampler stability (48 h), Low / Stability, murine whole-blood (-80 °C freeze-thaw), Low / Stability, murine whole-blood (ice, 2 h), Low: 10 ng/mL; for Autosampler stability (48 h), High / IV formulation stability, High / Oral formulation stability, High / Stability, murine whole-blood (-80 °C freeze-thaw), High / Stability, murine whole-blood (ice, 2 h), High: 4000 ng/mL; for IV formulation stability, High / Oral formulation stability, High / Stability, murine whole-blood (ice, 2 h), Low / Stability, murine whole-blood (ice, 2 h), High: 2 h; for Stability, murine whole-blood (-80 °C freeze-thaw), Low / Stability, murine whole-blood (-80 °C freeze-thaw), High / Stability, murine whole-blood (ice, 2 h), Low / Stability, murine whole-blood (ice, 2 h), High: mouse
# Procedure: The LC-MS/MS method used was partially validated by assessing recovery from mouse whole-blood, bench-top stability (3 h), auto-sampler stability (48 h), formulation stability (oral and IV, 2 h), freeze-thaw stability (3 cycles), and matrix effects (details in Supplementary Material). Partial method validation, comprising several tests to determine whether the compounds were stable in each possible experimental situation involved with sample collection, storage, and processing, was performed. These tests included: (i) compound stability in mouse whole-blood (on ice and at -80°C), (ii) compound stability in the autosampler, (iii) compound stability in oral and intravenous formulations, (iv) matrix effects (ME), and (v) compound recovery. In this study, stability is reported as a percentage, reflecting the stability of the compound in relation to a fresh sample prepared just before analysis.
# in vivo = assay: in vivo; set-up: species or system male C57BL/6 mice; conditions: for Vd / clearance / half-life / t1/2 / Cmax / Tmax: male, C57BL/6, mouse; for AUC: mouse
# Procedure: Healthy male C57BL/6 mice, 12 to 16 weeks old, weighing approximately 30 g, were maintained at the animal facility of the University of Cape Town. Mice were fed a standard laboratory diet and water ad libitum. Mice were housed in 27 × 21 × 18 cm cages, under controlled environmental conditions (26 ± 1°C with 12-h light/dark cycles). Mice were acclimatized to their experimental environment for 4 days before the experiment started.
# Clear suspensions of RMB041, -043, and -073 were prepared in […] hydroxypropyl methylcellulose and administered via oral gavage (20 mg/kg, volume = 200 μL, n = 3). Blood samples (20 μL) were collected on ice in heparinized microvials via tail bleeding at 0, 0.5, 1, 3, 5, 8, 10, 24, and 48 h following drug administration and stored at -80°C.
# Solutions for IV injection (5 mg/kg) were prepared using a mixture of dimethyl acetamide, polyethylene glycol, and polypropylene glycol (1:3:6, v/v) and were injected into the penile vein (80 μL) following anesthesia of mice with intraperitoneal injection (IP) of ketamine/xylazine (75–100 mg/kg + 10 mg/kg; n = 3). Blood samples were collected on ice in heparinized microvials via tail bleeding at 0.083, 0.5, 1, 3, 5, 8, 10, 24, and 48 h following drug administration and stored at -80°C.
# Mouse whole-blood samples (20 μL) were each treated with 100 μL ACN containing IS (carbamazepine, 1 μg/mL) to precipitate blood proteins, and were subjected to vigorous vortexing for 1 min and centrifugation at 5590 × g for 5 min. The supernatant layer containing compound (50 μL) was removed from each sample and added to the analysis plate. Thereafter, samples were dried down under nitrogen. A solution of ACN and water (1:1, v:v, 100 μL) was added to each well, and samples were analyzed via LC-MS/MS.
# To determine compound concentrations in mouse whole-blood samples, seven calibration samples (range 0.980 to 4000 ng/mL), as well as low-, medium-, and high-concentration quality control (QC) samples (3, 1600, and 3200 ng/mL, respectively) were prepared in mouse blood and subjected to ACN precipitation as described above, in triplicate. Calibration, QC, and test samples were analyzed via LC-MS/MS. Calibration samples were used to plot standard curves, from which test sample concentrations were calculated via quadratic regression (weighting factor = 1/x).
# A reverse-phase HPLC column (Gemini NX, C18, 2.6 μm, 50 × 2.1 mm, Phenomenex) was used to separate the compounds and IS (mobile phase B, 0.1% FA in ACN; mobile phase A, 0.1% FA in analytical-grade water). Auto-sampling was performed using an Agilent 1200 series auto-sampler. Data acquisition and evaluation were performed using the Analyst 1.6.2 software (Applied Biosystems, Foster City, CA, United States).
# Plots of concentration against time were used to determine the maximal drug concentration (Cmax), time at which Cmax is reached (Tmax), area-under-the-curve from time zero to infinity (AUC0-∞), and the elimination half-life (t1/2). Using these values, the clearance, volume of distribution, and oral bioavailability (BA) were calculated using the non-compartmental analysis (NCA) software PK Solutions version 2.0 (Summit Research Services, Montrose, CO, United States).
# The drug concentrations indicated in Figure 2–7 were used to calculate the PK parameters in Table 6 via NCA. Here, the area under the murine whole-blood concentration-time graph is divided into sequential trapezoids that are summed to determine the AUC, which is used to determine t1/2, apparent volume of distribution (Vd), clearance, and percentage BA.
# physchem = assay type: physicochemical; conditions: pH 7.4
# Procedure: The plate was agitated for 2 h at 22°C and 500 rpm. […] The different layers were analyzed to obtain a logD value.
# in vitro = in vitro ADME; conditions: for EH (hepatic extraction ratio) Human / EH (hepatic extraction ratio) Mouse: 0.1 M; for half-life at 0.1 M / microsomal CLint at 0.1 M: microsomes
# Procedure: RMB041, -043, and -073 ([…]) prepared in DMSO were incubated separately with 530 μL mouse and human microsomes (0.4 mg/mL) at 37°C with the cofactor NADPH (1 mM). Compounds were assessed at 0 and 60 min. The reaction was stopped by the addition of ice-cold ACN containing IS (carbamazepine, 23.6 ng/mL). The samples were analyzed via LC-MS/MS using the instrumentation and conditions described above. The in vitro half-life, intrinsic clearance rate, and hepatic extraction ratio were predicted using results from this assay in the following equations ([Obach, 1999]). […] EH=Fu × CLint/QH+Fu × CLint Metabolic stability was assessed as the compound's depletion from a starting concentration of […] over 1 h in mouse and human microsomal fractions. The in vitro half-life can be predicted from this assay. The linear regression from a graph relating natural logarithmic percentage of the compound remaining versus the incubation time was used to calculate the half-life, CLint, and EH.
SMILES,"Autosampler stability (48 h), Low [1] [%]","Autosampler stability (48 h), High [1] [%]","IV formulation stability, High [1] [%]","Oral formulation stability, High [1] [%]","Stability, murine whole-blood (-80 °C freeze-thaw), Low [1] [%]","Stability, murine whole-blood (-80 °C freeze-thaw), High [1] [%]","Stability, murine whole-blood (ice, 2 h), Low [1] [%]","Stability, murine whole-blood (ice, 2 h), High [1] [%]","Vd (in vivo; iv, 5 mg/kg) [L/kg]","clearance (in vivo; iv, 5 mg/kg) [mL/min/kg]","half-life (in vivo; iv, 5 mg/kg) [h]","t1/2 (in vivo; iv, 5 mg/kg) [h]","Cmax (in vivo; po, 20 mg/kg) [µM]","Tmax (in vivo; po, 20 mg/kg) [h]","half-life (in vivo; po, 20 mg/kg) [h]","AUC (in vivo; iv, 5 mg/kg) [µmol·min/L]",logD (physchem),EH (hepatic extraction ratio) Human (in vitro),EH (hepatic extraction ratio) Mouse (in vitro),half-life at 0.1 M (in vitro; human) [h],also measured
CCCCCCCCCCOc1cc2c(=O)c(C(=O)NCCOCCO)cn(CCO)c2cc1OCC [RMB073],105.3,102.0,98.8,89.3,89.5,97.3,87.6,92.3,3.9 ± 0.5,0.575,15.3 ± 3.2,15.3 ± 3.2,2 ± 0.03,0.5,11.6 ± 1.3,15940.0 ± 400.0,0.36,<0.43,<0.3,> 2.5,microsomal CLint at 0.1 M (in vitro; human): 7.78 µL/min/mg; half-life at 0.1 M (in vitro; mouse): > 2.5 h; microsomal CLint at 0.1 M (in vitro; mouse): 15 µL/min/mg
CCCCCCCCCCOc1cc2c(=O)c(C(=O)NCCOCCO)cn(CC)c2cc1OCC [RMB041],92.1,94.1,90.3,98.0,99.2,98.7,89.2,91.2,1.2 ± 0.03,0.385,62.3 ± 6.73,62.3 ± 6.7,5.4 ± 0.4,0.5,23.4 ± 2.5,29250.4 ± 309.0,0.48,<0.43,<0.3,> 2.5,microsomal CLint at 0.1 M (in vitro; human): 16 µL/min/mg; half-life at 0.1 M (in vitro; mouse): > 2.5 h; microsomal CLint at 0.1 M (in vitro; mouse): 26.8 µL/min/mg
CCCCCCCCCCOc1cc2c(=O)c(C(=O)NCCNCCO)cn(CC)c2cc1OCC [RMB043],99.8,99.1,93.1,89.0,91.3,92.5,102.4,109.0,4.6 ± 1.6,1.18,8.6 ± 0.4,8.6 ± 0.4,5.6 ± 1.4,0.5,6.2 ± 0.8,10068.4 ± 127.8,0.84,0.4,0.51,1.42,microsomal CLint at 0.1 M (in vitro; human): 83 µL/min/mg; half-life at 0.1 M (in vitro; mouse): 1 h; microsomal CLint at 0.1 M (in vitro; mouse): 109 µL/min/mg
